Experimental data reported in patent US6630496B1, “Inhibitors of phospholipase enzymes” (Genetics Institute LLC, priority 1996, dated 2003).

Columns and labels:
cPLA2 [1] = biological target: T1, cPLA2 (Homo sapiens, UniProt P47712); test: Coumarine assay (7-hydroxycoumarinyl 6-heptenoate hydrolysis); assay type: biochemical
T1 sequence (P47712 1-749): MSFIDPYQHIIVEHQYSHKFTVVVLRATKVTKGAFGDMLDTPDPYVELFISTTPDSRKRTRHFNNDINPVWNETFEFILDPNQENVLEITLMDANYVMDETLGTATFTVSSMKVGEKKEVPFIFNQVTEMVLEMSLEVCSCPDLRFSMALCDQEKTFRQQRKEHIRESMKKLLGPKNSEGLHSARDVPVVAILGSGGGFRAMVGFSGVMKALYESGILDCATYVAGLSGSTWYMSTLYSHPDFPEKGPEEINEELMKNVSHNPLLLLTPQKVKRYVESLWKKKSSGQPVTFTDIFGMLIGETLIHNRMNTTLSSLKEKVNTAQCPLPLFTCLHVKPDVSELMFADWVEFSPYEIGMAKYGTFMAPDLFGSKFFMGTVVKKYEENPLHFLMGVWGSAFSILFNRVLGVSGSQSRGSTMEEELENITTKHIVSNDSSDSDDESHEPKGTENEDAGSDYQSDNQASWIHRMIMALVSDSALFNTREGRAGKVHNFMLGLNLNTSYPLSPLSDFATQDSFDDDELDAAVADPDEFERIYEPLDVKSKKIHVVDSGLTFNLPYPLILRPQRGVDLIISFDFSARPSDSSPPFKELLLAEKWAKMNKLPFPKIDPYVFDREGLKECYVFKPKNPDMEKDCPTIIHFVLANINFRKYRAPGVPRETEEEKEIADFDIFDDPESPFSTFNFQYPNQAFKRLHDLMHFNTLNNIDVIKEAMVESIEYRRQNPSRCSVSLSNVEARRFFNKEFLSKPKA
Experimental: 7-hydroxycoumarinyl 6-heptenoate was used as a monomeric substrate for cPLA2 as reported previously (Huang, Z. et al., 1994, Analytical Biochemistry 222, 110-115). Inhibitors were mixed with 200 μL assay buffer (80 mM Hepes, pH 7.5, 1 mM EDTA) containing 60 μM 7-hydroxycoumarinyl 6-heptenoate. The reaction was initiated by adding 4 μg cPLA2 in 50 μL assay buffer. Hydrolysis of the 7-hydroxycoumarinyl 6-heptenoate ester was monitored in a fluorometer by exciting at 360 nm and monitoring emission at 460 nm. Enzyme activity is proportional to the increasein emission at 460 nm per minute. In the presence of a cPLA2 inhibitor, the rate of increase is less.

cPLA2 [2] = biological target: T1, cPLA2; test: Soluble substrate assay (LysoPC); assay type: biochemical
Experimental: (b) Soluble Substrate Assay (LysoPC)
The lipid was resuspended by vortexing 80 mM Hepes pH 7.5, 1 mM EDTA (1.2×final concentration). A typical assay consisted of lipid suspension (85 μl) to which was added consecutively the inhibitor (5 μl in DMSO) and cPLA2, 200 ng in 80 mM Hepes pH 7.5, 2 mM DTT and […]. This assay was conducted by either the manual assay or automated assay protocol described below.

[3] = 60 μM 7-hydroxycoumarinyl 6-heptenoate, read-out: IC50 (μM) Coumarine
[4] = NA = inhibitory activity not detected, read-out: IC50 (μM) Lyso PC

Compound	IC50 (cPLA2 [1]; [3]) [µM]	IC50 (cPLA2 [2]; [4]) [µM]	IC50 (cPLA2 [2]) [µM]	IC50 (cPLA2 [1]) [µM]
3-(2-(5-Benzyloxy-1-tert-butoxycarbonyl)indolinyl)methylsulfonylacetamidobenzoic Acid [Example 64]	> 64	17.6		
3-(2-(-5-Benzyloxy-1-(2,4-bis(1,1-dimethy)propyl)phenoxyacetyl)indolinyl)methylthioacetamido-4-methylbenzoic Acid [Example 18]	10	0.28		
3-(N-(2-(-5-Benzyloxy-1-(2,4-bis(1,1-dimethy)propyl)phenoxyacetyl)indolinyl)methylthioethyl)aminobenzoic Acid [Example 69]	6	19.4		
5-(2-(5-(3,5-Dibromo)benzyloxy-1-(3,5-bis(trifluoromethyl)phenoxyacetyl)indolinyl)methylthioacetamido)benzene-1,3-dicarboxylic Acid [Example 45]	5	0.37		
5-(2-(-5-Benzyloxy-1-(3,5-bis(trifluoromethyl)phenoxyacetyl)indolinyl)methylthioacetamido)-3-hydroxymethylbenzoic Acid [Example 41]	22	2.2		
5-(2-(-5-Benzyloxy-1-(3,5-bis(trifluoromethyl)phenoxyacetyl)indolinyl)methylthioacetamido)benzene-1,3-dicarboxylic Acid [Example 38]	> 50	6.9		
5-(2-(-5-Hydroxy-1-(3,5-bis(trifluoromethyl)phenoxyacetyl)indolinyl)methylthioacetamido)benzene-1,3-dicarboxylic Acid [Example 44]	> 30	27		
O=C(O)c1ccccc1OCc1cc2cc(OCc3ccccc3)ccc2n1C(=O)OCc1ccccc1 [Example 1, 2-(2-(1-Phenylmethoxycarbonyl-5-phenylmethoxy)indolyl)methoxybenzoic Acid]			47	
O=C(O)c1ccc(OCc2cc3cc(OCc4ccccc4)ccc3n2C(=O)OCc2ccccc2)cc1 [Example 2, 4-(2-(1-Phenylmethoxycarbonyl-5-phenylmethoxy)indolyl)methoxybenzoic Acid]			6	
O=C(O)c1cccc(OCc2cc3cc(OCc4ccccc4)ccc3n2C(=O)OCc2ccccc2)c1 [Example 3, 3-(2-(1-Phenylmethoxycarbonyl-5-phenylmethoxy)indolyl)methoxybenzoic Acid]			6.5	14
O=C(O)c1cccc(NC(=O)c2cc3cc(OCc4ccccc4)ccc3n2Cc2ccccc2)c1 [Example 5, 3-(2-(1-Benzyl-5-benzyloxy)indolecarboxamido)benzoic Acid]			4.3	52
CCC(C)(C)c1ccc(CCCCn2c(C(=O)Nc3cc(C(=O)O)ccc3OC)cc3cc(OCc4ccccc4)ccc32)c(C(C)(C)CC)c1 [Example 6]			2	6
O=C(O)c1cc(NC(=O)c2cc3cc(OCc4ccccc4)ccc3n2Cc2ccc3ccccc3c2)cc(C(=O)O)c1 [Example 7]			2.1	15
CCC(C)(C)c1ccc(OCC(=O)c2c(CSCC(=O)Nc3cc(C(=O)O)ccc3OC)n(C)c3ccc(OC)cc23)c(C(C)(C)CC)c1 [Example 12, 3-(2-(3-(2,4-bis(1,1-Dimethypropyl)phenoxyacetyl)-5-methoxy-1-methyl)indolyl)methylthioacetamido-4-methoxybenzoic Acid]			4	10
CCn1c(CSCC(=O)Nc2cc(C(=O)O)ccc2OC)c(C(=O)COc2ccc(C(C)(C)CC)cc2C(C)(C)CC)c2cc(OCc3ccccc3)ccc21 [Example 13]			0.5	12
O=C(O)CSCC1Cc2cc(OCc3ccccc3)ccc2N1C(=O)COc1cc(C(F)(F)F)cc(C(F)(F)F)c1 (stereo not drawn) [Example 37, 2-(5-Benzyloxy-1-(3,5-bis(trifluoromethyl)phenoxyacetyl)indolinyl)methylthioacetic Acid]	> 30	7.6		
CN(C)C(=O)c1cc(NC(=O)CSCC2Cc3cc(OCc4ccccc4)ccc3N2C(=O)COc2cc(C(F)(F)F)cc(C(F)(F)F)c2)cc(C(=O)O)c1 (stereo not drawn) [Example 39]	18	4.3		
CC(=O)c1cc(NC(=O)CSCC2Cc3cc(OCc4ccccc4)ccc3N2C(=O)COc2cc(C(F)(F)F)cc(C(F)(F)F)c2)cc(C(=O)O)c1 (stereo not drawn) [Example 40]	11	6.2		

Compound	IC50 (cPLA2 [1]; [3]) [µM]	IC50 (cPLA2 [2]; [4]) [µM]	IC50 (cPLA2 [2]) [µM]	IC50 (cPLA2 [1]) [µM]
CC(O)c1cc(NC(=O)CSCC2Cc3cc(OCc4ccccc4)ccc3N2C(=O)COc2cc(C(F)(F)F)cc(C(F)(F)F)c2)cc(C(=O)O)c1 (stereo not drawn) [Example 42]	14	7.8		
CNC(=O)c1cc(NC(=O)CSCC2Cc3cc(OCc4ccccc4)ccc3N2C(=O)COc2cc(C(F)(F)F)cc(C(F)(F)F)c2)cc(C(=O)O)c1 (stereo not drawn) [Example 43]	21	7.1		
CC(C)(c1ccccc1)c1ccc(OCC(=O)N2c3ccc(OCc4ccccc4)cc3CC2CSCC(=O)Nc2cccc(C(=O)O)c2)c(C(C)(C)c2ccccc2)c1 (stereo not drawn) [Example 56]	5	0.47		
O=C(CSCC1Cc2cc(OCc3ccccc3)ccc2N1C(=O)COc1ccc(C2C=CCC2)cc1C1C=CCC1)Nc1cccc(C(=O)O)c1 (stereo not drawn) [Example 58]	4	0.56		
COc1ccc(C(=O)O)cc1NC(=O)CSCC1Cc2cc(OCc3ccccc3)ccc2N1C(=O)COc1ccc2ccccc2c1 (stereo not drawn) [Example 59, 3-(2-(5-Benzyloxy-1-(2-naphthoxyaceiyl)indolinyl)methylthioacetamido)4-methoxybenzoic Acid]	> 30	8.7		
COc1ccc(C(=O)O)cc1NC(=O)CSCC1Cc2cc(OCc3ccccc3)ccc2N1C(=O)COc1ccc(Cc2ccccc2)cc1 (stereo not drawn) [Example 60]	> 30	4.6		
CCC(C)(C)c1ccc(OCC(=O)N2c3ccc(OCc4ccccc4)cc3CC2CSCC(=O)O)c(C(C)(C)CC)c1 (stereo not drawn) [Example 66]	6	2.3		
CCC(C)(C)c1ccc(OCC(=O)N2c3ccc(OCc4ccccc4)cc3CC2CSc2ccccc2C(=O)NC)c(C(C)(C)CC)c1 (stereo not drawn) [Example 68]	> 50	> 50		
C=CCN(C(=O)CSCC1Cc2cc(OCc3ccccc3)ccc2N1C(=O)COc1ccc(C(C)(C)CC)cc1C(C)(C)CC)c1cc(C(=O)O)ccc1OC (stereo not drawn) [Example 71]	12	5.9		
O=C(CSCC1Cc2cc(OCc3ccccc3)ccc2N1CCc1ccncc1)Nc1cccc(C(=O)O)c1 (stereo not drawn) [Example 72]	> 64			
O=C(CSCC1Cc2cc(OCc3ccccc3)ccc2N1Cc1ccc2ccccc2c1)Nc1cccc(C(=O)O)c1 (stereo not drawn) [Example 73, 3-(2-(5-Benzyloxy-1-(2-naphthyl)methy)indolinyl)methylthioacetamidobenzoic Acid]	6	1.9		
O=C(CSCC1Cc2cc(OCc3ccccc3)ccc2N1Cc1ccc(C(F)(F)F)cc1C(F)(F)F)Nc1cccc(C(=O)O)c1 (stereo not drawn) [Example 74]	5	1.1		
COc1ccc(C(=O)O)cc1NC(=O)CSCC1Cc2cc(OCc3ccccc3)ccc2N1Cc1ccc(C(F)(F)F)cc1C(F)(F)F (stereo not drawn) [Example 75]	6.2	7		
O=C(O)c1ccccc1SCC1Cc2cc(OCc3ccccc3)ccc2N1Cc1ccc(Cc2ccccc2)cc1 (stereo not drawn) [Example 78]	3			
O=C(O)c1ccc(CN2c3ccc(OCc4ccccc4)cc3CC2COCc2ccc(C(F)(F)F)cc2C(F)(F)F)cc1 (stereo not drawn) [Example 80, 4-(1-(5-Benzyloxy-2-(bis-2,4-trifluoromethyl)benzyloxymethyl)indolinyl)methylbenzoic Acid]	16			
O=C(O)c1ccc(CN2c3ccc(OCc4ccccc4)cc3CC2COCc2ccc3ccccc3c2)cc1 (stereo not drawn) [Example 81]	15	3.2		
O=C(O)c1cc(NC(=O)C2Cc3ccccc3N2Cc2ccc(C(F)(F)F)cc2C(F)(F)F)cc(C(=O)O)c1 (stereo not drawn) [Example 83]	> 50	> 50		
COc1ccc(COc2ccc3c(c2)CC(CNC(=O)Nc2cc(C(=O)O)cc(C(=O)O)c2)N3Cc2ccc(C(F)(F)F)cc2C(F)(F)F)cc1 (stereo not drawn) [Example 86]	17			
